Data from the CheMixHub viscosity set.
± gives the uncertainty stated by the source.

Test: xn = mol fraction of the nth substance listed

CCCCN(CCCC)CCCC + CC(C)O
viscosity [mPa·s], 101.33 kPa
Conditions | 298.15 K | 303.15 K | 308.15 K | 313.15 K | 318.15 K | 323.15 K
x1 = 0.0562 | 1.977 ± 0.12 | – | 1.524 ± 0.092 | – | 1.172 ± 0.071 | –
x1 = 0.1016 | – | 1.679 ± 0.1 | – | 1.292 ± 0.078 | – | 1.009 ± 0.061
x1 = 0.1175 | 1.876 ± 0.11 | – | 1.46 ± 0.088 | – | 1.132 ± 0.068 | –
x1 = 0.1477 | – | 1.619 ± 0.098 | – | 1.256 ± 0.076 | – | 0.988 ± 0.06
x1 = 0.1499 | 1.827 ± 0.11 | – | 1.429 ± 0.086 | – | 1.113 ± 0.067 | –
x1 = 0.1897 | 1.772 ± 0.11 | – | 1.394 ± 0.084 | – | 1.092 ± 0.066 | –
x1 = 0.1953 | – | 1.562 ± 0.094 | – | 1.223 ± 0.074 | – | 0.968 ± 0.059
x1 = 0.224 | 1.728 ± 0.1 | – | 1.367 ± 0.083 | – | 1.075 ± 0.065 | –
x1 = 0.2585 | – | 1.496 ± 0.09 | – | 1.185 ± 0.072 | – | 0.945 ± 0.057
x1 = 0.2648 | 1.681 ± 0.1 | – | 1.338 ± 0.081 | – | 1.057 ± 0.064 | –
x1 = 0.3035 | 1.641 ± 0.099 | – | 1.313 ± 0.079 | – | 1.041 ± 0.063 | –
x1 = 0.3076 | – | 1.452 ± 0.088 | – | 1.16 ± 0.07 | – | 0.93 ± 0.056
x1 = 0.3493 | 1.6 ± 0.097 | – | 1.287 ± 0.078 | – | 1.024 ± 0.062 | –
x1 = 0.3539 | – | 1.415 ± 0.086 | – | 1.139 ± 0.069 | – | 0.918 ± 0.055
x1 = 0.404 | 1.559 ± 0.094 | – | 1.26 ± 0.076 | – | 1.007 ± 0.061 | –
x1 = 0.4061 | – | 1.379 ± 0.083 | – | 1.118 ± 0.068 | – | 0.906 ± 0.055
x1 = 0.4528 | 1.528 ± 0.092 | 1.351 ± 0.082 | 1.24 ± 0.075 | 1.101 ± 0.067 | 0.994 ± 0.06 | 0.898 ± 0.054
x1 = 0.4899 | 1.508 ± 0.091 | – | 1.226 ± 0.074 | – | 0.985 ± 0.06 | –
x1 = 0.5047 | – | 1.324 ± 0.08 | – | 1.086 ± 0.066 | – | 0.889 ± 0.054
x1 = 0.5476 | – | 1.304 ± 0.079 | – | 1.073 ± 0.065 | – | 0.884 ± 0.053
x1 = 0.5541 | 1.479 ± 0.089 | – | 1.206 ± 0.073 | – | 0.972 ± 0.059 | –
x1 = 0.604 | 1.46 ± 0.088 | – | 1.192 ± 0.072 | – | 0.962 ± 0.058 | –
x1 = 0.611 | – | 1.278 ± 0.077 | – | 1.059 ± 0.064 | – | 0.876 ± 0.053
x1 = 0.6925 | 1.434 ± 0.087 | – | 1.172 ± 0.071 | – | 0.948 ± 0.057 | –
x1 = 0.7023 | – | 1.247 ± 0.075 | – | 1.042 ± 0.063 | – | 0.866 ± 0.052
x1 = 0.7872 | – | 1.221 ± 0.074 | – | 1.027 ± 0.062 | – | 0.859 ± 0.052
x1 = 0.8457 | 1.399 ± 0.085 | – | 1.145 ± 0.069 | – | 0.927 ± 0.056 | –
x1 = 0.9375 | – | 1.181 ± 0.071 | – | 1.004 ± 0.061 | – | 0.848 ± 0.051
x1 = 0.9696 | – | 1.173 ± 0.071 | – | 0.999 ± 0.06 | – | 0.847 ± 0.051

CCCCN(CCCC)CCCC + CCCO
viscosity [mPa·s]
Conditions | 298.15 K | 303.15 K | 308.15 K | 313.15 K | 318.15 K | 323.15 K
101.3 kPa, x1 = 0.0929 | – | 1.75 ± 0.021 | – | 1.364 ± 0.017 | – | –
101.3 kPa, x1 = 0.1877 | – | 1.712 ± 0.02 | – | 1.328 ± 0.016 | – | –
101.3 kPa, x1 = 0.2897 | – | – | – | 1.289 ± 0.016 | – | –
101.3 kPa, x1 = 0.3991 | – | 1.605 ± 0.019 | – | 1.245 ± 0.015 | – | –
101.3 kPa, x1 = 0.5176 | – | 1.529 ± 0.018 | – | – | – | –
101.3 kPa, x1 = 0.616 | – | 1.462 ± 0.017 | – | – | – | –
101.3 kPa, x1 = 0.7064 | – | 1.392 ± 0.017 | – | – | – | –
101.3 kPa, x1 = 0.8055 | – | 1.307 ± 0.016 | – | – | – | –
101.3 kPa, x1 = 0.8864 | – | 1.252 ± 0.015 | – | – | – | –
101.33 kPa, x1 = 0.0994 | – | – | – | 1.412 ± 0.085 | – | 1.318 ± 0.08
101.33 kPa, x1 = 0.1089 | 1.974 ± 0.12 | – | 1.622 ± 0.098 | – | 1.465 ± 0.089 | –
101.33 kPa, x1 = 0.1447 | – | 1.7 ± 0.1 | – | 1.398 ± 0.085 | – | 1.343 ± 0.081
101.33 kPa, x1 = 0.1916 | – | – | – | 1.375 ± 0.083 | – | 1.342 ± 0.081
101.33 kPa, x1 = 0.2045 | 1.895 ± 0.12 | – | 1.558 ± 0.094 | – | 1.436 ± 0.087 | –
101.33 kPa, x1 = 0.2539 | 1.845 ± 0.11 | 1.603 ± 0.097 | 1.519 ± 0.092 | 1.34 ± 0.081 | 1.403 ± 0.085 | 1.315 ± 0.079
101.33 kPa, x1 = 0.3026 | 1.795 ± 0.11 | 1.558 ± 0.094 | 1.481 ± 0.09 | 1.308 ± 0.079 | 1.366 ± 0.083 | 1.283 ± 0.078
101.33 kPa, x1 = 0.3485 | – | 1.517 ± 0.092 | – | 1.277 ± 0.077 | – | 1.247 ± 0.075
101.33 kPa, x1 = 0.3584 | 1.739 ± 0.11 | – | 1.437 ± 0.087 | – | 1.32 ± 0.08 | –
101.33 kPa, x1 = 0.4003 | 1.7 ± 0.1 | 1.473 ± 0.089 | 1.407 ± 0.085 | 1.244 ± 0.075 | 1.286 ± 0.078 | 1.206 ± 0.073
101.33 kPa, x1 = 0.4469 | 1.66 ± 0.1 | 1.436 ± 0.087 | 1.375 ± 0.083 | 1.216 ± 0.074 | 1.249 ± 0.076 | 1.17 ± 0.071
101.33 kPa, x1 = 0.4987 | 1.619 ± 0.098 | 1.4 ± 0.085 | 1.342 ± 0.081 | 1.187 ± 0.072 | 1.211 ± 0.073 | 1.133 ± 0.068
101.33 kPa, x1 = 0.5417 | – | 1.372 ± 0.083 | – | 1.165 ± 0.07 | – | 1.104 ± 0.067
101.33 kPa, x1 = 0.5569 | 1.58 ± 0.096 | – | 1.309 ± 0.079 | – | 1.171 ± 0.071 | –
101.33 kPa, x1 = 0.6053 | 1.551 ± 0.094 | 1.335 ± 0.081 | 1.284 ± 0.078 | 1.136 ± 0.069 | 1.14 ± 0.069 | 1.065 ± 0.064
101.33 kPa, x1 = 0.6587 | 1.523 ± 0.092 | – | 1.259 ± 0.076 | – | 1.108 ± 0.067 | –
101.33 kPa, x1 = 0.6973 | 1.504 ± 0.091 | 1.289 ± 0.078 | 1.242 ± 0.075 | 1.098 ± 0.066 | 1.085 ± 0.066 | 1.012 ± 0.061
101.33 kPa, x1 = 0.7606 | 1.474 ± 0.089 | – | 1.216 ± 0.074 | – | 1.047 ± 0.063 | –
101.33 kPa, x1 = 0.7832 | – | 1.251 ± 0.076 | – | 1.066 ± 0.064 | – | 0.962 ± 0.058
101.33 kPa, x1 = 0.8067 | 1.454 ± 0.088 | – | 1.197 ± 0.072 | – | 1.02 ± 0.062 | –
101.33 kPa, x1 = 0.9104 | 1.409 ± 0.085 | – | 1.156 ± 0.07 | – | 0.959 ± 0.058 | –
101.33 kPa, x1 = 0.9361 | – | 1.189 ± 0.072 | – | 1.013 ± 0.061 | – | 0.873 ± 0.053
101.33 kPa, x1 = 0.9688 | – | 1.177 ± 0.071 | – | 1.004 ± 0.061 | – | 0.858 ± 0.052
